Test results reported in US20110183980A1, “O-BENZYL NICOTINAMIDE ANALOGS AS MGLUR5 POSITIVE ALLOSTERIC MODULATORS” (priority 2009, published 2011).
Where two headings read alike, the source gives them in different places.

Target: T1, rat mGluR5 (Rattus norvegicus, UniProt P31424)
T1 construct: expressed in transfected cells; host or cells: human embryonic kidney (HEK) cells
Experiment: Potentiation of glutamate response, Ca2+ fluorescence (FDSS) in HEK cells transfected with rat mGluR5
Assay type: cell-based
Method: Human embryonic kidney (HEK) cells transfected with rat mGluR5 were plated in clear bottom assay plates for assay in a Functional Drug Screening System (FDSS). The cells were loaded with a Ca^2+-sensitive fluorescent dye (e.g., Fluo-4), and the plates were washed and placed in the FDSS instrument. After establishment of a fluorescence baseline for twelve seconds, the compounds of the present invention were added to the cells, and the response in cells was measured. Five minutes later, an mGluR5 agonist (e.g., glutamate, 3,5-dihydroxyphenylglycine, or quisqualate) was added to the cells, and the response of the cells was measured. Potentiation of the agonist response of mGluR5 by the compounds in the present invention was observed as an increase in response to non-maximal concentrations of agonist (here, glutamate) in the presence of compound compared to the response to agonist in the absence of compound.
The above described assay operated in two modes. In the first mode, a range of concentrations of the present compounds were added to cells, followed by a single fixed concentration of agonist. If a compound acted as a potentiator, an EC50 value for potentiation and a maximum extent of potentiation by the compound at this concentration of agonist was determined by non-linear curve fitting. In the second mode, several fixed concentrations of the present compounds were added to various wells on a plate, followed by a range of concentrations of agonist for each concentration of present compound; the EC50 values for the agonist at each concentration of compound were determined by non-linear curve fitting. A decrease in the EC50 value of the agonist with increasing concentrations of the present compounds (a leftward shift of the agonist concentration-response curve) is an indication of the degree of mGluR5 potentiation at a given concentration of the present compound. An increase in the EC50 value of the agonist with increasing concentrations of the present compounds (a rightward shift of the agonist concentration-response curve) is an indication of the degree of mGluR5 antagonism at a given concentration of the present compound. The second mode also indicates whether the present compounds also affect the maximum response to mGluR5 to agonists.

[1] = Table 1, potentiation of mGluR5 response to glutamate, read-out: EC50
[2] = Table 2, potentiation of mGluR5 response to glutamate, read-out: EC50

T1 sequence (P31424 21-1203): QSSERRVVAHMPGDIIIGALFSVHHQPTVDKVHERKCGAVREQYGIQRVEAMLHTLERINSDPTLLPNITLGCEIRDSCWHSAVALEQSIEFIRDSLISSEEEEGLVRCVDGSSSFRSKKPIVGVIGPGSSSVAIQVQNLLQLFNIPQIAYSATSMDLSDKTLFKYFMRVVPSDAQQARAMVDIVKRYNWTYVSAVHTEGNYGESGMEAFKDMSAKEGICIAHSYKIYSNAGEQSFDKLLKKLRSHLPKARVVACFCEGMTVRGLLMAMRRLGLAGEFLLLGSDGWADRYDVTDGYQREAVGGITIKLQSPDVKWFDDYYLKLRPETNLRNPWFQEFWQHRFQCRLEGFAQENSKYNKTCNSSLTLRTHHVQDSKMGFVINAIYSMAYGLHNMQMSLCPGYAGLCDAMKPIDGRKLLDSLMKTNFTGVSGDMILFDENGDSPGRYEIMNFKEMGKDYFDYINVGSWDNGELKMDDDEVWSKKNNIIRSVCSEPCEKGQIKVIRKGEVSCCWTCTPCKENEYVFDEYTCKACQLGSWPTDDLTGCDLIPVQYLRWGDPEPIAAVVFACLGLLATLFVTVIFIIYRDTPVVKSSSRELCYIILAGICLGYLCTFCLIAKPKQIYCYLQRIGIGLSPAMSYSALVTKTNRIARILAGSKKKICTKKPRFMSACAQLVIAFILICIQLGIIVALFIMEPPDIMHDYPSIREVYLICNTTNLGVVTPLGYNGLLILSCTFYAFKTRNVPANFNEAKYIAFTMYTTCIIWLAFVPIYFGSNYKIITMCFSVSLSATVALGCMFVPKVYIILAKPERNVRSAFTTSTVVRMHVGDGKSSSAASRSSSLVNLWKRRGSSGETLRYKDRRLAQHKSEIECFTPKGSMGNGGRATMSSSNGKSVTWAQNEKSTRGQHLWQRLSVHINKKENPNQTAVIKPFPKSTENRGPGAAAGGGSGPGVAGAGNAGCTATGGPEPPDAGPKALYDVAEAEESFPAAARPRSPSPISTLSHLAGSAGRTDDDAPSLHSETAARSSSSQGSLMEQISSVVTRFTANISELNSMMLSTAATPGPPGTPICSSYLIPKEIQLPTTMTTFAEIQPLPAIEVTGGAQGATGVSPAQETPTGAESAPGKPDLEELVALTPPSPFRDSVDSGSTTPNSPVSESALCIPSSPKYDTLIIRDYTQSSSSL

SMILES | EC50 [1] [nM] | EC50 [2] [nM] | other results
O=C(NCC1CCOCC1)c1ccc(OCc2cccc(F)c2)nc1 [Example 1.2c.17] | 1100 |  | 
CC[C@@H](C)NC(=O)c1ccc(OCc2cccc(F)c2)nc1 |  | 1300 | 
C[C@@H](NC(=O)c1ccc(OCc2ccncc2)nc1)C1CC1 [Example 1.2i.5] | 4800 |  | 
CC(NC(=O)c1ccc(OCc2cccc(F)c2)nc1)C1CCCCO1 (centres unmarked) |  | > 10000 | 
COCC(C)NC(=O)c1ccc(OCc2cccc(F)c2)nc1 (centres unmarked) |  | 3000 | 
O=C(Nc1ccc(F)cn1)c1ccc(OCc2ccc(F)cc2)nc1 [Example 1.2d.3] | 510 |  | 
O=C(NC1CCC1)c1ccc(OCc2cccc(F)c2)nc1 [Example 1.2c.19] | 120 |  | 
CC(Oc1ccc(C(=O)N[C@H](C)C(C)(C)C)cn1)c1cccc(F)c1 (some centres unmarked) |  | > 10000 | 
Cc1cc(OCc2cccc(F)c2)ncc1C(=O)NCCC(C)(C)C |  | 960 | 
Cc1cccc(COc2ccc(C(=O)Nc3ccccn3)cn2)c1 [Example 1.2g.1] | 240 |  | 
C[C@@H](NC(=O)c1ccc(OCc2ccccc2)nc1)C1CC1 [Example 1.2a.22] | 170 |  | 
CC(C)(C)CCNC(=O)c1ccc(OCc2cccnc2)nc1 [Example 2.3c.1] | 2900 |  | 
O=C(c1ccc(OCc2cccc(F)c2)nc1)N1CCOCC1 [Example 1.2c.7] | 1700 |  | 
Cc1cc(OCc2ccncc2)ncc1C(=O)NCCC(C)(C)C |  | 1700 | 
O=C(NC1CCC1)c1ccc(OCc2ccccc2)nc1 [Example 1.2a.9] | 340 |  | 
O=C(Nc1ccncn1)c1ccc(OCc2ccccc2)nc1 [Example 1.2a.13] | 1100 |  | 
O=C(NC1C2CC3CC(C2)CC1C3)c1ccc(OCc2ccccc2)nc1 (centres unmarked) |  | 39 | 
CC(C)(C)CCNC(=O)c1cnc(OCc2ccncc2)c(C#N)c1 |  | > 10000 | 
O=C(Nc1ccccn1)c1ccc(OCc2ccncc2)nc1 [Example 1.2i.2] | ≥ 10000 |  | 
O=C(NCC1CC1)c1ccc(OCc2ccccc2)nc1 [Example 1.2a.7] | 450 |  | 
Cc1nc(OCc2ccccc2)ccc1C(=O)NCCC(C)(C)C [Example 1.2b.3] | 400 |  | 
Cc1nc(OCc2ccncc2)ccc1C(=O)NCCC(C)(C)C [Example 1.2n.1] | 3400 |  | 

SMILES | EC50 [1] [nM] | EC50 [2] [nM] | other results
COc1c(F)cccc1COc1ccc(C(=O)N[C@H](C)C(C)(C)C)cn1 |  | 5200 | 
COc1nc(OCc2cccc(F)c2)ccc1C(=O)NCCC(C)(C)C |  | > 10000 | 
O=C(NCC1CCCCC1)c1ccc(OCc2cccc(F)c2)nc1 [Example 1.2c.16] | 230 |  | 
O=C(NC1CC(O)(C(F)(F)F)C1)c1ccc(OCc2cccc(F)c2)nc1 (centres unmarked) |  | 1800 | 
O=C(c1ccc(OCc2ccccc2)nc1)N1CCC1 [Example 1.2a.10] | 3700 |  | 
O=C(NC1CCCC1)c1ccc(OCc2ccccc2)nc1 |  | 180 | 
CC(C)(C)[C@@H](CO)NC(=O)c1ccc(OCc2cccc(F)c2)nc1 |  | 3200 | 
C[C@]1(O)CCC[C@@H]1NC(=O)c1ccc(OCc2cccc(F)c2)nc1 |  | > 10000 | 
O=C(Nc1cccc(F)c1)c1ccc(OCc2cccc(F)c2)nc1 [Example 1.2c.10] | 460 |  | 
Cc1cc(C(=O)Nc2ccc(F)cc2F)cnc1OCc1cccc(F)c1 |  | > 10000 | 
O=C(Nc1ccccc1F)c1ccc(OCc2ccccc2)nc1 [Example 1.2a.15] | 310 |  | 
O=C(Nc1cccc(F)c1)c1ccc(OCc2ccccc2)nc1 [Example 1.2a.16] | 530 |  | 
CC(C)(C)CCNC(=O)c1ccc(OCc2cccc(F)c2)nc1 [Example 1.2c.3] | 85 |  | 
C[C@@H](NC(=O)c1ccc(OCc2ccccc2)nc1)C1CCCCC1 [Example 1.2a.19] | 40 |  | 
Cc1cc(C(=O)N[C@H](C)C2CCCCC2)cnc1OCc1ccncc1 |  | 3600 | 
CC(C)(C)OCCNC(=O)c1ccc(OCc2cccc(F)c2)nc1 |  | > 10000 | 
O=C(Nc1ccc(F)cc1F)c1ccc(OCc2ccccc2)nc1 [Example 1.2a.5] | 140 |  | 
N#Cc1cccc(COc2ccc(C(=O)NC3CCCCC3)cn2)c1 [Example 2.3a.7] | 95 |  | 
O=C(Nc1ccc(F)cc1)c1ccc(OCc2ccccc2)nc1 [Example 1.2a.17] | 340 |  | 
O=C(NCC1CCOCC1)c1ccc(OCc2ccccc2)nc1 [Example 1.2a.21] | 3900 |  | 
Cc1nc(OCc2cccc(F)c2)ccc1C(=O)N[C@H](C)C1CCCCC1 [Example 1.2m.2] | 870 |  | 
Cc1cc(OCc2cccc(F)c2)ncc1C(=O)N[C@H](C)C1CCCCC1 |  | 130 | 

SMILES | EC50 [1] [nM] | EC50 [2] [nM] | other results
O=C(NC1CCOCC1)c1ccc(OCc2cccc(F)c2)nc1 [Example 1.2c.20] | 1600 |  | 
CC(NC(=O)c1ccc(OCc2cccc(F)c2)nc1)C1CCCOC1 (centres unmarked) |  | 3700 | 
CC(C)NC(=O)c1ccc(OCc2cccc(F)c2)nc1 [Example 1.2c.4] | 1000 |  | 
CCCCOc1ccc(C(=O)NC(C)(C)C)cn1 [Example 1.2j.3] | ≥ 10000 |  | 
CC1(O)CC(NC(=O)c2ccc(OCc3cccc(F)c3)nc2)C1 (centres unmarked) |  | > 10000 | 
C[C@@H](NC(=O)c1ccc(OCc2cccc(F)c2)nc1)C1CCOC(C)(C)C1 (some centres unmarked) |  | 1700 | 
O=C(Nc1ccccc1F)c1ccc(OCc2cccc(F)c2)nc1 [Example 1.2c.9] | 210 |  | 
CC(C)(C)NC(=O)c1ccc(OCc2cccc(F)c2)nc1 [Example 1.2c.5] | 400 |  | 
Cc1cc(OCc2cccc(F)c2)ncc1C(=O)Nc1ccc(F)cc1F |  | 920 | 
Cc1cc(OCc2ccncc2)ncc1C(=O)Nc1ccc(F)cc1F |  | 490 | 
C[C@H](NC(=O)c1ccc(OCc2ccccc2)nc1)C1CCCCC1 [(S)-6-(benzyloxy)-N-(1-cyclohexylethyl)nicotinamide] |  |  | EC50 (read-out: EC50 as an mGluR5 potentiator): > 10000 nM
O=C(Nc1ccccn1)c1ccc(OCc2cccnc2)nc1 [Example 1.2h.1] | 2900 |  | 
Cc1cc(OCc2cccc(F)c2)ncc1C(=O)N[C@H](C)C(C)(C)C |  | 690 | 
O=C(Nc1nccs1)c1ccc(OCc2ccccc2)nc1 [Example 1.2a.18] | 520 |  | 
CC(C)(C)CCNC(=O)c1ccc(OCc2cc(F)cc(F)c2)nc1 [Example 1.2e.1] | 1100 |  | 
CCCCOc1ccc(C(=O)Nc2ccc(F)cn2)cn1 [Example 1.2j.4] | 1500 |  | 
CCCCOc1ccc(C(=O)NC2CCCCC2)cn1 [Example 1.2j.2] | 2400 |  | 
O=C(NCc1ccccn1)c1ccc(OCc2cccc(F)c2)nc1 [Example 1.2c.8] | 2700 |  | 
CC(C)(C)CCNC(=O)c1ccc(OCc2cc(F)cc(Br)c2)nc1 |  | > 10000 | 
C[C@@H](NC(=O)c1cnc(OCc2ccncc2)cc1C(F)(F)F)C(C)(C)C |  | 3900 | 
O=C(NCC1CC1)c1ccc(OCc2cccc(F)c2)nc1 [Example 1.2c.14] | 920 |  | 
